Assay results reported in PMC3954112 (Drug and alcohol dependence, 2013).
“And” between values parts separate entries of the source, which are not always exact repeats. Equal entries are not always repeated. “Also recorded” adds a separate entry of the source. Where two headings read alike, the source gives them in different places.

Key:
D1 receptor = details: ref Katz et al., 1999; cited from earlier work
[1] = cited from earlier work; for effect on locomotor activity: ref Desai et al. (2005)
[2] = ref Katz et al., 1999; cited from earlier work
[3] = ref Abrahams et al., 1998; Katz et al., 1999; cited from earlier work
human DA D1 receptor = human DA D1 receptor (Homo sapiens, UniProt P21728); test: Competitive inhibition of [3H]SCH23390 binding, D1 receptor, HEK293 membranes; details: [3H]SCH23,390
human DA D3 receptor = human DA D3 receptor (Homo sapiens, UniProt P35462); type: binding; details: read-out: Ki, D3; [3H]N-Methyl-spiperone; HEK293 membranes
human DA D4 receptor = human DA D4 receptor (Homo sapiens, UniProt P21917); type: binding
[4] = molecular target: human DA D1, D2, D3, D4 and D5 receptors; test: Dopamine receptor binding, statements grouped over subtypes
human D1 DA receptor = human D1 DA receptor (Homo sapiens, UniProt P21728); test: cAMP formation in HEK cells expressing D1 receptor; type: cell-based
human D5 DA receptor = human D5 DA receptor (Homo sapiens, UniProt P21918); test: cAMP formation in HEK cells expressing D5 receptor; type: cell-based
[5] = molecular target: human dopamine D3 receptor (Homo sapiens, UniProt P35462); test: [35S]GTPγS binding assay, D3 receptor membranes; type: biochemical; details: 1 μM
[6] = molecular target: human dopamine D4 receptor (Homo sapiens, UniProt P21917); test: [35S]GTPγS binding assay, D4 receptor membranes; type: biochemical; details: 1 μM
[7] = system: More than 40 receptors, ion channels, and transporters; test: Screening for pharmacological targets by binding assays; details: screen at 10 μM
[8] = system: alpha1A, 1B, 2A, 2B, and 2C, and beta1 and 2 adrenergic receptors; test: Binding screen at 10 μM, adrenergic receptors
[9] = system: 5-HT1A, 1B, 1E, 2A, 2C, 3, 4, 5A, 6, and 7 serotonin receptors; test: Binding screen at 10 μM, serotonin receptors
[10] = system: dopamine, norepinephrine and serotonin transporters; test: Binding screen at 10 μM, monoamine transporters
[11] = system: mu, delta, and kappa opioid receptors; test: Opioid receptor binding, [3H]diprenorphine; details: 10 μM
[12] = system: orphanin FQ/nociception; GABAA; histamine H1, 2, 3, and 4; muscarinic M1, 2, 3, 4, and 5; NMDA/MK801; test: Binding screen at 10 μM, other receptors
CD-1 mice [13] = test: Spontaneous locomotor activity, non-habituated mice; type: in vivo, mouse; details: 10 mg/kg i.p.; for time of inhibition of spontaneous locomotor activity: mouse; for inhibition of locomotor activity (AUC) vs vehicle, 30-100 min: non-habituated mice
CD-1 mice [14] = test: Repeated cocaine-induced locomotor sensitization; type: in vivo, mouse
CD-1 mice [15] = test: Conditioned place preference; type: in vivo, mouse; details: l-ICP 10 mg/kg i.p. by itself; pre-test -24 ± 46 s; P>0.05
[16] = HPLC analysis of l-ICP and possible metabolites in mouse serum; type: in vivo; details: 20 mg/kg i.p., serum 30 min after injection, HPLC UV 280 nm
CD-1 mice [17] = test: Acute cocaine-induced locomotor hyperactivity
[18] = ref Sun et al., 2009; cited from earlier work
[19] = molecular target: D1-like dopamine receptors in calf striatal membranes; details: read-out: Ki, D1-like receptors, bovine striatal membranes; ref Xu et al. (1989); cited from earlier work
D1 = details: 10 μM; ref Mantsch et al. (2007); cited from earlier work
D2 = details: 10 μM; ref Mantsch et al. (2007); cited from earlier work
D3 = details: 10 μM; ref Mantsch et al. (2007); cited from earlier work
rats = details: cited from earlier work; for reduction of locomotor activity over 2 h: 60 min pretreatment, rats, ref Mantsch et al., 2007
[20] = system: patients addicted only to heroin; details: treatment for one month; ref Yang et al., 2008; cited from earlier work
human DA D2 receptor = human DA D2 receptor (Homo sapiens, UniProt P14416); test: biochemical
human DA D5 receptor = human DA D5 receptor (Homo sapiens, UniProt P21918); test: biochemical; details: D5, [3H]SCH23,390, HEK293 membranes
[21] = l-ICP 1, 3 or 10 mg/kg i.p. + saline
[22] = l-ICP 3 and 10 mg/kg i.p., 10 min before cocaine 20 mg/kg i.p.

Oc1cc2c(cc1O)C(c1ccccc1)CNCC2 (stereo not shown) [SKF 38393]
efficacy of a full agonist (D1 receptor): ~ 50%
effect on locomotor activity [1]: produced limited changes in locomotor activity
effect on cocaine-induced hyperlocomotion [2]: produced dose-related decreases in cocaine-induced hyperlocomotion

CN1CCc2cc(O)c(O)cc2C(c2ccccc2)C1 (stereo not shown) [SKF 75670]
effect on locomotor activity [1]: produced locomotor stimulation similar to full agonists

C=CCN1CCc2cc(O)c(O)cc2C(c2ccccc2)C1 (stereo not shown) [SKF 77434]
efficacy of a full agonist (D1 receptor): ~ 50%
effect on locomotion ([1]; ref Abrahams et al., 1998, Katz et al., 1999): did not increase locomotion
effect on locomotor activity [1]: produced locomotor stimulation similar to full agonists
induction of CPP [3]: nor did it cause CPP
effect on cocaine-induced hyperlocomotion [2]: produced dose-related decreases in cocaine-induced hyperlocomotion

COc1cc2c(cc1O)[C@@H]1Cc3ccc(OC)c(OC)c3CN1CC2 [l-ICP, l-isocorypalmine]
Ki (human DA D3 receptor): 37.3 ± 3.4 nM
Ki (human DA D4 receptor; read-out: Ki, D4, [3H]N-Methyl-spiperone, HEK293 membranes): 77.4 ± 17.5 nM
Ki ([4]; read-out: Ki values for D1 and D5 receptors, range over D1 and D5): 5 to 10 nM
Ki ([4]; read-out: Ki values for D2, D3 and D4 receptors, range over D2, D3 and D4): 37 to 78 nM and 37 to 77 nM
Emax, D5R, cAMP formation (human D5 DA receptor): 65 % of DA and 65±10 % of DA
EC50 (human D5 DA receptor; read-out: EC50, D5R, cAMP formation): 20 ± 4 nM
antagonist effect on DA dose-response curve, [35S]GTPγS, D3 [5]: significantly shifted the DA-induced D2, D3 and D4 dose-response curves to the right without affecting maximal response
antagonist effect on DA dose-response curve, [35S]GTPγS, D4 [6]: significantly shifted the DA-induced D2, D3 and D4 dose-response curves to the right without affecting maximal response
binding to screened pharmacological targets (panel result) [7]: had significant affinities only for DA receptors
binding to adrenergic receptors [8]: did not bind significantly
binding to serotonin receptors [9]: did not bind significantly
binding to dopamine, norepinephrine and serotonin transporters [10]: did not bind
binding to mu, delta, and kappa opioid receptors [11]: did not bind significantly
binding to orphanin FQ, GABAA, histamine, muscarinic, NMDA/MK801 receptors [12]: did not bind significantly
time of inhibition of spontaneous locomotor activity (CD-1 mice [13]): < 30 min
inhibition of locomotor activity (AUC) vs vehicle, 30-100 min (CD-1 mice [13]): no significant inhibition; also recorded: had no effect
effect of repeated l-ICP alone on locomotor activity, days 1-5 (CD-1 mice [14]; 10 mg/kg i.p., no cocaine, P=0.724 vs veh/sal): did not affect locomotor activity
effect on cocaine-induced hyperlocomotion, day 1 (CD-1 mice [14]; l-ICP 10 mg/kg i.p. 10 min before cocaine 20 mg/kg i.p., P=0.003 vs veh/cocaine): significantly reduced
effect on cocaine-induced hyperlocomotion, day 5 (CD-1 mice [14]; l-ICP 10 mg/kg i.p. once a day, P<0.001 vs veh/cocaine): significantly reduced cocaine-induced hyperlocomotion on day 5
CPP score, post-test, l-ICP/saline (CD-1 mice [15]): -137 ± 70 s
compounds identified in serum / metabolism [16]: not metabolized to a significant extent in 30 min
effect on ambulatory activity in saline-treated habituated mice (CD-1 mice [17]; [21]): had no effect
effect on non-ambulatory repetitive activity in saline-treated habituated mice (CD-1 mice [17]; [21]): had no effect
effect on total activity in saline-treated habituated mice (CD-1 mice [17]; [21]): did not reduce spontaneous locomotor activity; also recorded: had no effect
effect on acute cocaine-induced hyperlocomotion (summary) (CD-1 mice [17]; l-ICP 3 and 10 mg/kg): significantly reduced acute cocaine-induced hyperlocomotion
effect on cocaine-induced ambulatory activity (CD-1 mice [17]; [22]): dose-dependently decreased cocaine-induced hyperactivities
effect on cocaine-induced non-ambulatory repetitive activity (CD-1 mice [17]; [22]): dose-dependently decreased cocaine-induced hyperactivities
effect on cocaine-induced total activity (CD-1 mice [17]; [22]): dose-dependently decreased cocaine-induced hyperactivities

COc1cc2c(cc1O)[C@@H]1Cc3ccc(O)c(OC)c3CN1CC2 [l-Stepholidine]
blood-brain barrier penetration [18]: penetrates the blood-brain barrier well

COc1cc2c(cc1OC)[C@@H]1Cc3ccc(OC)c(OC)c3CN1CC2 [l-THP, l-tetrahydropalmatine]
Ki (human DA D4 receptor): > 1000 nM
binding to screened pharmacological targets (panel result) [7]: none of over 50 pharmacological targets bound l-THP with high affinity
time of inhibition of spontaneous locomotor activity (CD-1 mice [13]): > 90 min
inhibition of locomotor activity (AUC) vs vehicle, 30-100 min (CD-1 mice [13]): about 60%
Ki [19]: 1100 nM
inhibition of binding to D1 (D1): 97%
inhibition of binding to D2 (D2): 87%
inhibition of binding to D3 (D3): 83%
reduction of locomotor activity over 2 h (rats; 3.75 mg/kg i.p.): ~ 40%
reduction of locomotor activity over 2 h (rats; 7.5 mg/kg i.p.): ~ 90%
reduction of locomotion over 2 h (rats; 10 mg/kg, ref Xi et al. (2007)): ~ 80%
craving and withdrawal symptoms during treatment [20]: significantly reduced craving and withdrawal symptoms
enhancement of abstinence rate three months after discharge [20]: three-fold
Ki (human DA D2 receptor): > 1000 nM
Ki (human DA D5 receptor): ~300 nM
